# What was measured:
# [1] = Solubility of Q203 in aqueous solutions (background statement); format: physicochemical
# cytochrome bc1 = cytochrome bc1 (Mycobacterium tuberculosis, UniProt P9WP37); settings: by inhibiting cytochrome bc1 activity; Pethe et al., Nature Medicine 2013; cited from earlier work
# Chain of cytochrome bc1 (P9WP37 whole entry, looked up): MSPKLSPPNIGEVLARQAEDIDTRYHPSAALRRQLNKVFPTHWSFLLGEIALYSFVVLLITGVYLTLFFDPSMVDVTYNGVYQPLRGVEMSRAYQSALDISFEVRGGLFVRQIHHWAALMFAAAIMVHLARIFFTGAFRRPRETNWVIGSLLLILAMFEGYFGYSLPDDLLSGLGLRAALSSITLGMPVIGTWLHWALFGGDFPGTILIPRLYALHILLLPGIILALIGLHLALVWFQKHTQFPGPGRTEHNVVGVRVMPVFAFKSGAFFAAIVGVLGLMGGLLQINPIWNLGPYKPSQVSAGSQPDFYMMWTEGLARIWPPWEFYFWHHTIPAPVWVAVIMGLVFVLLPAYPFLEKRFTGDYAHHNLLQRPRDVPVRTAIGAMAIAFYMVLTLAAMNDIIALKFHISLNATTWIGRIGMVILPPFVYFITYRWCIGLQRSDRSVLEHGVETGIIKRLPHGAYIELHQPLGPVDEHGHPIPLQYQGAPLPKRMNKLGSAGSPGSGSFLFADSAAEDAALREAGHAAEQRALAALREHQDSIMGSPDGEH
smiles,measurement,setting,value
"CCc1nc2ccc(Cl)cn2c1C(=O)NCc1ccc(N2CCC(c3ccc(OC(F)(F)F)cc3)CC2)cc1 [Example Q203, 6-chloro-2-ethyl-N-(4-(4-(4-(trifluoromethoxy)phenyl)piperidine-1-yl)benzyl)imidazo[1,2-a]pyridine-3-carboxamide]",solubility in aqueous solutions,[1],rather low solubility
same,activity against tuberculosis,cytochrome bc1,active against tuberculosis

# Reference: US12653787B2, “Pharmaceutical oral dosage form of Q203” (QURIENT CO., LTD., priority 2019, dated 2026)
